According to the supplement of paper PMC12076712:

How the values were obtained:
Assay in all cases: pIC50, kinobeads binding competition
ACVR2A = ACVR2A (UniProt P27037); conditions: cell material: Lysate mix
Outline: (§1)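 Either living Jurkat cells (60 min at 37 °C, then lysis) or lysates (60 min at 4 °C) were treated with nine compound concentrations from a top of 30 μM, in 1:4 steps for cells and 1:5 steps for lysates. The lysates were from Jurkat cells or a 1:1:1:1 mix of HEK293, K-562, HepG2 and placenta. Kinobeads-bound proteins were digested and quantified by TMT10 LC-MS/MS. pIC50 was calculated by logistic dose-response fitting (R drc package) of fold changes relative to vehicle, in biological duplicates.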

MAP4K4 = MAP4K4 (UniProt O95819)
Sequence of MAP4K4 (O95819 whole entry, looked up): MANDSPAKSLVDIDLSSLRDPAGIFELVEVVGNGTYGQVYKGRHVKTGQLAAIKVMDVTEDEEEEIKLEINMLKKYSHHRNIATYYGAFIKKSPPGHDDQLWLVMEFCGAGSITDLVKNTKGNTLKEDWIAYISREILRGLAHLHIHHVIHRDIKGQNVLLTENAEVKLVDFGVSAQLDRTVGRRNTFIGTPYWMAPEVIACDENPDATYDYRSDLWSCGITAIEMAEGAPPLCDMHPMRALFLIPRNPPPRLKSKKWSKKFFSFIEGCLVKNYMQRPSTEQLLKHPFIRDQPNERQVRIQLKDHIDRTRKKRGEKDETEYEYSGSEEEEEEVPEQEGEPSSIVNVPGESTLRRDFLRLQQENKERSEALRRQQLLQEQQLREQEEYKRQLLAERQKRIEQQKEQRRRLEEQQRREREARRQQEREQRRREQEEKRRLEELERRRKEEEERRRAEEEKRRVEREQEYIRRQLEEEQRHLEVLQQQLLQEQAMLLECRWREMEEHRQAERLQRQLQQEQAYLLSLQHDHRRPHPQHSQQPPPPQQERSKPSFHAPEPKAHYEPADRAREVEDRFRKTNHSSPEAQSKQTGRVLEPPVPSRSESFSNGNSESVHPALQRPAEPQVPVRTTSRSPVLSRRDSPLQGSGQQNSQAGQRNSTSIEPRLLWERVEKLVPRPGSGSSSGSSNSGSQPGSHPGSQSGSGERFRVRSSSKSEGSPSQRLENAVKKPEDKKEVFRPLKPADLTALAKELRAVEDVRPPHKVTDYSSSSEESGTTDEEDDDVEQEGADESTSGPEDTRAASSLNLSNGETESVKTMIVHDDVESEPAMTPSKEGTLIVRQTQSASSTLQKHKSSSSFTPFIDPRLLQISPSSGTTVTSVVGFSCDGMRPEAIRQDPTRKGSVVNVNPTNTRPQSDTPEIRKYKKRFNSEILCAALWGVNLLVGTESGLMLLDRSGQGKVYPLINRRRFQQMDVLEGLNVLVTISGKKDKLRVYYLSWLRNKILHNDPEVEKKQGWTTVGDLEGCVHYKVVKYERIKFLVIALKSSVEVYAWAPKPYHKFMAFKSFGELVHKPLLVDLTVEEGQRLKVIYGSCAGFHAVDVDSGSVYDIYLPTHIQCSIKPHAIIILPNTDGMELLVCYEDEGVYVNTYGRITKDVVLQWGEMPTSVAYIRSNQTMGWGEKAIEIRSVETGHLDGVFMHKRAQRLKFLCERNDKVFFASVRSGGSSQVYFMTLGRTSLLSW
Outline: as §1

PRKG1 = target: T1, PRKG1 (UniProt Q13976); conditions: cell material: Lysate mix
T1 sequence (whole entry): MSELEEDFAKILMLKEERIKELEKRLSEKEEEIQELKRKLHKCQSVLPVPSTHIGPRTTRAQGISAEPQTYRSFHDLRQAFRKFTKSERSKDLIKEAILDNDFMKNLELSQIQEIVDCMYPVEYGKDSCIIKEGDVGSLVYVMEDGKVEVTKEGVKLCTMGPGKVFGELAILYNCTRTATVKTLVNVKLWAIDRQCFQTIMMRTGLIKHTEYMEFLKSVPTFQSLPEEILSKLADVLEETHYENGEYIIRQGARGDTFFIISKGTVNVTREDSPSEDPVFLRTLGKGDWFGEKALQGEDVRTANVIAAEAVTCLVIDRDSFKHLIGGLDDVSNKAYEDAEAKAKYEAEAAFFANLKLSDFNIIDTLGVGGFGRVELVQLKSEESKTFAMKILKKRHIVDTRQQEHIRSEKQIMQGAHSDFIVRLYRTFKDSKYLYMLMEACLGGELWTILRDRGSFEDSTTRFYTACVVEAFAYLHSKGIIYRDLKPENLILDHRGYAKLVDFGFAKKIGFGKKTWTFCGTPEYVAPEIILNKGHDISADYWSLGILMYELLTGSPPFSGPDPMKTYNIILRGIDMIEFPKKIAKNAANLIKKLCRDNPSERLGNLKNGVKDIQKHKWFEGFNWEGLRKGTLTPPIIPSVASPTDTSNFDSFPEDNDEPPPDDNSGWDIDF
Outline: as §1

STK39 = STK39 (UniProt Q9UEW8)
Outline: as §1

SYK = SYK (UniProt P43405)
Outline: as §1

UniProt O15530 = target: T2, UniProt O15530
T2 sequence (whole entry): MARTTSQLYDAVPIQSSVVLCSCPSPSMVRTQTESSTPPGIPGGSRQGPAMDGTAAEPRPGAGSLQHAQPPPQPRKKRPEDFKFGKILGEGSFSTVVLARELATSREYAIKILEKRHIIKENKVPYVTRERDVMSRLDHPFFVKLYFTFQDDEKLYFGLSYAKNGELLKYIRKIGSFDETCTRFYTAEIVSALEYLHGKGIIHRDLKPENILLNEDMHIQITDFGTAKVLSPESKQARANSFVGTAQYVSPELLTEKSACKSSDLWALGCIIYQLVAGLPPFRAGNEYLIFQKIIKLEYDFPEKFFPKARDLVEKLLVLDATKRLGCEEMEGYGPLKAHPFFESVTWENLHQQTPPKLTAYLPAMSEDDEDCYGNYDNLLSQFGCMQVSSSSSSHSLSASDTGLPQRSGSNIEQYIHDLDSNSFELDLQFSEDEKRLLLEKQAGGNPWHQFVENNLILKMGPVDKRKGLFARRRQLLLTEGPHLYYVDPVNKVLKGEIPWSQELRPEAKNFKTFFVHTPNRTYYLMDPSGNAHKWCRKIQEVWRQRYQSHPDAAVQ
Outline: as §1

UniProt P49841 = target: UniProt P49841
Sequence of UniProt P49841 (P49841 whole entry, looked up): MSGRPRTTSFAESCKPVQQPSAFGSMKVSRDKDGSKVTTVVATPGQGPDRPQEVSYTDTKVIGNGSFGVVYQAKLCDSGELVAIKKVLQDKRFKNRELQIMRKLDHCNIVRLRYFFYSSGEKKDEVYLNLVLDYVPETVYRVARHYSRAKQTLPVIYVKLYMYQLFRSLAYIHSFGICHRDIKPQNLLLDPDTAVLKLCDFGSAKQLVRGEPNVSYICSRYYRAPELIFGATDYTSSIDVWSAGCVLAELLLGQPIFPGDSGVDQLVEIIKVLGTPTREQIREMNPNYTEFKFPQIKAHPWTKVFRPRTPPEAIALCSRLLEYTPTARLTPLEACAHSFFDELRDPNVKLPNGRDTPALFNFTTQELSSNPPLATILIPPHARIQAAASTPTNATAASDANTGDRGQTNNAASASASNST
Outline: as §1

UniProt Q8TBX8 = target: T3, UniProt Q8TBX8
T3 sequence (whole entry): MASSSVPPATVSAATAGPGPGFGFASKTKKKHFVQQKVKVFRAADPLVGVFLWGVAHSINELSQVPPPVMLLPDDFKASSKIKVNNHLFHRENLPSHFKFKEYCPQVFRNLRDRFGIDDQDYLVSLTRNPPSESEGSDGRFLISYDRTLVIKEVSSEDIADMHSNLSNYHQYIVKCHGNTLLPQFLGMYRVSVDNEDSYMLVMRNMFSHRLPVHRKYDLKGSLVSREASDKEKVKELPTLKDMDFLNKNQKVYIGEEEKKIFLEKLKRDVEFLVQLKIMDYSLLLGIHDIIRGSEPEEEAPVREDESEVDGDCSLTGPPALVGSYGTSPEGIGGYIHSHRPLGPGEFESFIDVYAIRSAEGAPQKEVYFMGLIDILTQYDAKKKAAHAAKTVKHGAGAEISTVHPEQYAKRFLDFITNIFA
Outline: as §1

UniProt Q9Y2U5 = target: T4, UniProt Q9Y2U5
T4 sequence (whole entry): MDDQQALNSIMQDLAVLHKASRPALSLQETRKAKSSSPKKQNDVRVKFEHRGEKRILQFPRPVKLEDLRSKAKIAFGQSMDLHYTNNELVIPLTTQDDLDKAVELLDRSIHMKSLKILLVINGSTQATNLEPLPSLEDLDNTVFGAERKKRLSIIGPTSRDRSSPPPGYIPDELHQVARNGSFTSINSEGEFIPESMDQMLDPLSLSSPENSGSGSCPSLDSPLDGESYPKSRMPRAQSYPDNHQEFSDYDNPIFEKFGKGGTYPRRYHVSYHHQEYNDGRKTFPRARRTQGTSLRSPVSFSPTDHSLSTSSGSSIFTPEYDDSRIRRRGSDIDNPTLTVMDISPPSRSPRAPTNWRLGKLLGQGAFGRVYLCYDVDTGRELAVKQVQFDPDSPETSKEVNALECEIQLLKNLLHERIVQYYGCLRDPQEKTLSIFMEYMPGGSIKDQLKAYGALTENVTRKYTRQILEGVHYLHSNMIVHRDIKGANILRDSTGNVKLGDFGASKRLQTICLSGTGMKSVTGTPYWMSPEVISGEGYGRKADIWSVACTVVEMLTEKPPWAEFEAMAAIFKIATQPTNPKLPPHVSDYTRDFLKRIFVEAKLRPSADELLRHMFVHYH
Outline: as §1

Sequence of ACVR2A (P27037 whole entry): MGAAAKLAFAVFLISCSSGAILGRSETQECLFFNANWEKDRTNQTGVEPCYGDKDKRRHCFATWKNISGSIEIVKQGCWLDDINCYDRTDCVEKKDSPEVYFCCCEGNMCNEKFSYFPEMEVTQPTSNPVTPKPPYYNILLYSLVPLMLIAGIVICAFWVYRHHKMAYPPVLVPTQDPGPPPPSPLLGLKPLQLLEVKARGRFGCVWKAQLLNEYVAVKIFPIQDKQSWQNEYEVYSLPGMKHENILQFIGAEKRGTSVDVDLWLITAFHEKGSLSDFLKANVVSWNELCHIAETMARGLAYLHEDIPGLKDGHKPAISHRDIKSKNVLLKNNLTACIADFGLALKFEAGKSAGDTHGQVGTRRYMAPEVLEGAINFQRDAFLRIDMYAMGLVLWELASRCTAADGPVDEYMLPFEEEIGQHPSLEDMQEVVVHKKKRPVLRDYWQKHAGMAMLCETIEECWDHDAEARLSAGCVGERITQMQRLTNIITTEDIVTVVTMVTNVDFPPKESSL

SMILES | pIC50 (ACVR2A) | pIC50 (MAP4K4; cell material: Jurkat cells) | pIC50 (MAP4K4; cell material: Jurkat lysate) | pIC50 (PRKG1) | pIC50 (STK39; cell material: Jurkat cells) | pIC50 (STK39; cell material: Jurkat lysate) | pIC50 (STK39; cell material: Lysate mix) | pIC50 (SYK; cell material: Jurkat lysate) | pIC50 (SYK; cell material: Lysate mix) | pIC50 (UniProt O15530; cell material: Jurkat cells) | pIC50 (UniProt O15530; cell material: Jurkat lysate) | pIC50 (UniProt O15530; cell material: Lysate mix) | pIC50 (UniProt P49841; cell material: Jurkat cells) | pIC50 (UniProt P49841; cell material: Jurkat lysate) | pIC50 (UniProt P49841; cell material: Lysate mix) | pIC50 (UniProt Q8TBX8; cell material: Jurkat cells) | pIC50 (UniProt Q8TBX8; cell material: Jurkat lysate) | pIC50 (UniProt Q8TBX8; cell material: Lysate mix) | pIC50 (UniProt Q9Y2U5; cell material: Jurkat cells) | pIC50 (UniProt Q9Y2U5; cell material: Lysate mix) | pIC50 (MAP4K4; cell material: Lysate mix) | pIC50 (SYK; cell material: Jurkat cells) | pIC50 (UniProt Q9Y2U5; cell material: Jurkat lysate)
C#CCNC(=O)c1cc(Nc2cc(C3CC3)[nH]n2)nc(N2CCN(Cc3ccc(S(=O)(=O)F)cc3)CC2)n1 | < 4.52 | 5.9 | < 4.52 | < 4.52 | 6.04 | 5.28 | 5.92 | 5.64 | 6.28 | 5.5 | < 4.52 | < 4.52 | 5.26 | < 4.52 | < 4.52 | 5.4 | < 4.52 | < 4.52 | 5.84 | 5.47 | – | – | –
C#CCNC(=O)c1cc(Nc2cc(C)[nH]n2)nc(N2CCN(Cc3ccc(S(=O)(=O)F)cc3)CC2)n1 | < 4.52 | – | – | < 4.52 | – | – | 5.73 | – | 5.52 | – | – | < 4.52 | – | – | < 4.52 | – | – | < 4.52 | – | 4.82 | < 4.52 | – | –
Cc1cc(Nc2cc(C(=O)NCCNC(=O)OC3CC/C=C/CCC3)nc(N3CCN(Cc4ccc(S(=O)(=O)F)cc4)CC3)n2)n[nH]1 (stereo unspecified) | < 4.52 | – | – | < 4.52 | – | – | < 4.52 | – | < 4.52 | – | – | < 4.52 | – | – | < 4.52 | – | – | < 4.52 | – | < 4.52 | < 4.52 | – | –
O=C(NCCNC(=O)c1cc(Nc2cc(C3CC3)[nH]n2)nc(N2CCN(Cc3ccc(S(=O)(=O)F)cc3)CC2)n1)OC1CC/C=C/CCC1 (stereo unspecified) | < 4.52 | 5.15 | < 4.52 | < 4.52 | 5.62 | < 4.52 | – | < 4.52 | < 4.52 | – | < 4.52 | < 4.52 | 4.84 | < 4.52 | < 4.52 | – | < 4.52 | < 4.52 | 5.38 | < 4.52 | < 4.52 | 5.38 | < 4.52
CCNC(=O)c1cc(Nc2cc(C)[nH]n2)nc(N2CCN(Cc3ccc(S(=O)(=O)F)cc3)CC2)n1 | < 4.52 | – | – | < 4.52 | – | – | 4.66 | – | 5.57 | – | – | < 4.52 | – | – | < 4.52 | – | – | < 4.52 | – | 4.67 | < 4.52 | – | –
CCNC(=O)c1cc(Nc2cc(C3CC3)[nH]n2)nc(N2CCN(Cc3ccc(S(=O)(=O)F)cc3)CC2)n1 | < 4.52 | – | – | < 4.52 | – | – | 5.65 | – | 6.22 | – | – | < 4.52 | – | – | < 4.52 | – | – | < 4.52 | – | 5.29 | < 4.52 | – | –
